This is an account of results in US20240012010A1, “METHODS OF MONITORING ALPHA-1 ANTITRYPSIN (AAT) DEFICIENCY BY MEASURING POLYMERISED AAT” (Vertex Pharmaceuticals Incorporated, priority 2020, published 2024).

For the assay, the target named is T1, AAT polymer (Z variant of the human allele of AAT) (Homo sapiens, UniProt P01009, E366K/V237A).
T1 construct: At study termination, plasma was collected via cardiac puncture; from tissue; host or cells: plasma of transgenic PiZ mice (C57BL/6 background) carrying the human SERPINA1 Z gene
T1 sequence (P01009 25-418 V237A/E366K): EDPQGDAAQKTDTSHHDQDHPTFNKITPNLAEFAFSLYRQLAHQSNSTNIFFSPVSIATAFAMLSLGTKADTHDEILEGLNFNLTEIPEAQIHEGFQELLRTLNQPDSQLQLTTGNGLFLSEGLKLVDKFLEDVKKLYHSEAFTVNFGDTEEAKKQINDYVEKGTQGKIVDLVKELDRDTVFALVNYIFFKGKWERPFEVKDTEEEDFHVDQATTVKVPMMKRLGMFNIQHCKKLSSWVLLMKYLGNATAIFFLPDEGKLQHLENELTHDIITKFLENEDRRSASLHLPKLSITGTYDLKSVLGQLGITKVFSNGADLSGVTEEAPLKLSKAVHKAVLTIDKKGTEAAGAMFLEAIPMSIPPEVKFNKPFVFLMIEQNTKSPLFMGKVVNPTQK
Nature of the assay: Pharmacodynamic effect of Compound 2 treatment on polymer levels in a PiZ mouse model (polymer sandwich ELISA of plasma). The assay is classed as in vivo. The settings on record: male PiZ hemizygous mice. On the procedure:
Eleven week-old male PiZ mice, hemizygous for the Z variant of the human allele of AAT, were orally administered a suspension of either vehicle or Compound 2 QD at 50 and 100 mg/kg/day for 72 hours or 5, 16, 50, and 100 mg/kg/day for 28 days. At study termination, plasma was collected via cardiac puncture and liver tissue was collected and preserved in 10% neutral buffered formalin.
Liver polymer staining was assessed as the % area of liver tissue that stains positively by monoclonal antibody 2C1 immunohistochemistry.
High bind EIA/RIA microplates (Costar, 3590) were coated with 100 μL mouse monoclonal anti-human AAT polymer antibody (Hycult Biotech, HM2289, clone 2C1) diluted to 2 μg/mL in carbonate-bicarbonate buffer (0.2M, pH 9.4) and incubated for 90 minutes at 37° C. (while shaking) or alternatively overnight (up to 72 hours) at 4° C. (still). […] Following color development, 100 μL 1N sulfuric acid was added to stop the reaction and absorbance was immediately measured at 450 nm and 650 nm for background subtraction with a microplate reader (Molecular Devices, SpectraMax M3). […]

`O=C(O)c1ccc(-c2c(C3CCOCC3)n(-c3ccc(F)c(F)c3)c3cc4cn[nH]c4cc23)cc1` [Compound 2]: the “AAT plasma polymer levels” value was “dose response decrease” (QD 5, 16, 50 and 100 mg/kg/day PO for 28 days, vs vehicle (FIG. 5B)); “dose response decrease” (QD 50 and 100 mg/kg/day PO for 72 hours, vs vehicle (FIG. 5A)).
